Experimental data published in patent US9974760B2, “Compositions and methods for treating cancer” (Chemo-Enhanced LLC, priority 2011, dated 2018).

How the values were obtained:
[1] = test system: L3.6 pancreatic cancer cells; assay: Cell viability / cell death (MTT) in L3.6 pancreatic cancer cells; type: cell-based, human; conditions: for cell death of L3.6 cells: 2.5 μg/ml C6-ceramide, 1.5 μg/ml taxol
Method: L3.6 pancreatic cancer cells, cultured either in the basic DMEM medium or with 10% FBS, were treated with the indicated doses of taxol in the presence or absence of C6-ceramide (10 μg/ml) for 48 hours and cell viability was detected by MTT assay (FIGS. 1A-1B). L3.6 cells, cultured either in basic DMEM medium or with 10% FBS, were treated with the indicated dose of C6-ceramide in the presence or absence of taxol (1.5 μg/ml) for 48 hours and cell viability was detected by MTT assay (FIGS. 1C-1D). Mitomycin C (10 μg/ml) was always present in the media to prevent cell proliferation from occurring. The data represents the mean±SD of at least triplicate experiments. *P<0.05 versus group without C6-ceramide presents (FIGS. 1A-1B). **P<0.05 versus group without taxol presents (FIGS. 1C-1D).
(§1) FIGS. 3A-3H show synergistic anti-tumor effects of C6-ceramide and gemcitabine in vivo and in vitro. SCID/Beige/Taconic nude male mice (22-25 g; 6-8 weeks old) were ear tagged and randomized into 4 different groups (Control, Ceramide, gemcitabine, Ceramide+gemcitabine) combining 5 mice each prior to inoculation subcutaneous (s.c.) with 2×10^6 L3.6 cells in a 0.1 ml volume into the internal surface of the right thigh. Treatment was started 4 days after L3.6 cell injection with thrice weekly (3×/wk) intraperitoneal (i.p.) injections of gemcitabine (two doses: 5.0 and 10.0 mg/ml) with or without C6-ceramide (10 mg/ml) for 2 weeks. Mouse survival (FIGS. 3A, 3B, and 3E) and tumor volume (in cm^3; FIGS. 3C and 3D) were recorded (FIG. 3E). Pancreatic cancer cell lines, including L3.6 cells (FIG. 3F), Panc-1 cells (FIG. 3G) and MIA-PaCa2 cells (MIA, FIG. 3H) were cultured in basic DMEM medium and were treated with gemcitabine (Gem, 1 μg/ml). Mitomycin C was always present in the media to prevent cell proliferation from occurring. The data represent the mean±SD of at least triplicate experiments. *P<0.05 versus group without C6-ceramide presents. The experiments were repeated at least three times and similar results were observed.
Pancreatic cancer cell lines L3.6 cells were left untreated or treated with gemcitabine (Gem, 1 μg/ml) or taxol (1.5 μg/ml) in the presence or absence of C6-ceramide (10 μg/ml) for 2, 4 and 6 hours, AKT/mTORC1 and ERK activation were detected by Western Blot using indicated antibodies (FIGS. 5A and 5C). p-AKT (S473) and p-ERK at 4 hour time intervals for each treatment quantified (FIGS. 5B and 5D). L3.6 cells were pretreated with various inhibitors including PI3K/AKT inhibitor LY 294002 (LY, 1 μM), mTORC1 inhibitor rapamycin (100 nM), MEK/ERK inhibitor U0126 (1 μg/ml) or gemcitabine (1 μg/ml) for 48 hours, cell death was detected 48 hours later (FIG. 5E). The effects of the various inhibitors described above on AKT/mTORC1 and ERK activation were also detected by Western Blots using commercial available antibodies (FIG. 5F). *P<0.05 versus group without C6-ceramide presents. The experiments were repeated at least three times and similar results were observed.
Cell viability was measured by the 3-[4m5-dimethylthylthiazol-2-y]-2.5 diphenyltetrazolium bromide (MTT) method, as described in Cao et al. (2009) Sci. Signal, 2:RA17. Briefly, the cells were collected and seeded in 96-well plate at a density of 2×10^5 cells/cm^2. Different seeding densities were optimized at the beginning of the experiments. After overnight incubation cells were exposed to fresh medium containing indicated reagents at 37° C. After incubation for different time periods, 20 ul of MTT tetrazolium (Sigma, St. Louis, Mo.) salt dissolved in Hank's balanced solution at a concentration of 5 mg/ml was added to each well and incubated in a CO2 incubator for an additional 4 hours. The medium was subsequently aspirated from each well and 150 ul of DMSO (Sigma, St. Louis, Mo.) was added to dissolve formazan crystals and the absorbance of each well was obtained using a Dynatech MR5000 plate reader at a test wavelength of 490 nm with a reference wavelength of 630 nm. […]

Panc-1 cells = assay: Cell death in Panc-1 pancreatic cancer cells; type: cell-based
Method: as §1, with “Pancreatic cancer cell lines, including L3.6 cells (FIG. 3F), Panc-1 cells (FIG. 3G) and MIA-PaCa2 cells (MIA, FIG. 3H) were cultured in basic DMEM medium and were treated with gemcitabine (Gem, 1 μg/ml).” left out
(§2) Cell viability was measured by the 3-[4m5-dimethylthylthiazol-2-y]-2.5 diphenyltetrazolium bromide (MTT) method, as described in Cao et al. (2009) Sci. Signal, 2:RA17. Briefly, the cells were collected and seeded in 96-well plate at a density of 2×10^5 cells/cm^2. Different seeding densities were optimized at the beginning of the experiments. […] The medium was subsequently aspirated from each well and 150 ul of DMSO (Sigma, St. Louis, Mo.) was added to dissolve formazan crystals and the absorbance of each well was obtained using a Dynatech MR5000 plate reader at a test wavelength of 490 nm with a reference wavelength of 630 nm.
(§3) The possible combination effect of C6-ceramide on gemcitabine-induced cytotoxicity (in vitro) and regression (in vivo) of the L3.6 pancreatic cancer cell was also tested according to the methods described in Examples 2 and 3. […] A synergistic anti-tumor effect of gemcitabine and C6-ceramide in multiple pancreatic cancer cells in vitro was also determined.

MIA-PaCa2 cells = assay: Cell death in MIA-PaCa2 pancreatic cancer cells; type: cell-based
Method: as §1, with “Pancreatic cancer cell lines, including L3.6 cells (FIG. 3F), Panc-1 cells (FIG. 3G) and MIA-PaCa2 cells (MIA, FIG. 3H) were cultured in basic DMEM medium and were treated with gemcitabine (Gem, 1 μg/ml).” left out
as §2, §3

[2] = test system: L3.6 pancreatic cancer cells; assay: Cell viability / cell death (MTT) in L3.6 pancreatic cancer cells; type: cell-based, human; conditions: gemcitabine 1.5 μg/ml

Structure (SMILES)	sensitization to cetuximab ([1]; L3.6 cells)	enhancement of paclitaxel induced cell death ([1]; L3.6 cells, dose dependent manner)	L3.6 cell death, agent alone ([1]; basic DMEM medium, MTT)	L3.6 cell death ([1]; cultured in 10% FBS)	cell death of L3.6 cells ([1]; cultured in 10% FBS)	sensitization to cetuximab (Panc-1 cells; PANC-1, activating KRAS mutation)	cancer cell death (Panc-1 cells; Panc-1, gemcitabine 1.5 μg/ml)	sensitization to cetuximab (MIA-PaCa2 cells; MIA PaCa-2, activating KRAS mutation)	cancer cell death (MIA-PaCa2 cells; MIA cells, gemcitabine 1.5 μg/ml)	cancer cell death [2]	L3.6 cell death ([1]; basic DMEM medium, MTT, 48 hours, paclitaxel 1.5 μg/ml alone or combined with C6-ceramide)
CCCCCCCCCCCCC/C=C/[C@@H](O)[C@H](CO)NC(=O)CCCCC [C6-ceramide, N-hexanoyl-D-sphingosine]	markedly sensitized	dramatically enhanced	limited effects	neither taxol or C6-ceramide alone had any meaningful effects	neither of these two alone had any measurable effect	markedly sensitized	moderate effect	markedly sensitized	moderate effect	moderate effect	
CC(=O)O[C@H]1C(=O)[C@@]2(C)[C@H]([C@H](OC(=O)c3ccccc3)[C@]3(O)C[C@H](OC(=O)[C@H](O)[C@@H](NC(=O)c4ccccc4)c4ccccc4)C(C)=C1C3(C)C)[C@]1(OC(C)=O)CO[C@@H]1C[C@@H]2O [paclitaxel]				neither taxol or C6-ceramide alone had any meaningful effects	neither of these two alone had any measurable effect						less than 5%
